Laboratory results as given in US20220071999A1, “DESIGN AND DISCOVERY OF BD OXIDASE INHIBITORS FOR THE TREATMENT OF MYCOBACTERIAL DISEASES” (UNIVERSITY OF NOTRE DAME DU LAC, priority 2018, published 2022).
Read-outs that look alike come from different tables or passages of the source.

Experiments:
[1] = tested on: M. tuberculosis; assay: acute murine model of M. tuberculosis infection, alone and in combination; format: in vivo
Protocol: ND-11992 (bd oxidase inhibitor) and Q203 (cyt-bc1:aa3 inhibitor) were evaluated in an acute murine model of M. tuberculosis infection alone and in combination. ND-11992 (10 mg/kg PO)+Q203 (5 mg/kg PO) results in bactericidal efficacy with 1.5 log 10 CFU drop in bacteria when dosed orally for 5 days. […] Both compounds were bacteriostatic when dosed alone as single agents.

[2] = tested on: Mycobacterium abscessus clinical specimens; assay: checkerboard assay (MIC) against Mycobacterium abscessus clinical specimens; format: cell-based; conditions: for MIC: Mycobacteroides abscessus; for Activity (effect on MICs in combination): ND-11992 with ND-11598
Protocol: ND-11992 (bd oxidase inhibitor) and ND-11598 (cyt-bc1:aa3 inhibitor) were evaluated against various Mycobacterium abscessus clinical specimens in a checkerboard assay. Additive effects on MICs were observed when both drugs were used in combination. MIC values are given in μg/mL.

[3] = tested on: Nontuberculous mycobacteria (NTM) clinical isolates of the Mycobacterium avium-intracellulare complex (MAIC); assay: checkerboard assay (MIC) against NTM clinical isolates of the MAIC; format: cell-based; conditions: for MIC: Mycobacterium avium-intracellulare
Protocol: ND-11992 (bd oxidase inhibitor) and ND-11598 (cyt-bc1:aa3 inhibitor) were evaluated against various Nontuberculous mycobacteria (NTM) clinical isolates of the Mycobacterium avium-intracellulare complex (MAIC) in a checkerboard assay. Additive and synergistic effects on MICs were observed when both drugs were used in combination. MIC values are given in μg/mL.

For `CCc1nc2ccc(Cl)cn2c1C(=O)NCc1ccc(N2CCC(c3ccc(OC(F)(F)F)cc3)CC2)cc1` [Q203], the “type of efficacy (bactericidal/bacteriostatic)” value ([1]; dosed alone as single agents) was “bacteriostatic”.
With `Cc1ccn2c(C(=O)NCc3ccc(N4CCCN(c5ccc(C(F)(F)F)cc5)CC4)c(F)c3)c(C)nc2c1` [ND-11598] the MIC ([2]; M. abscessus Clinical Isolate #8, read-out: MIC ND-11598 alone) was > 10 mg/L, the MIC ([2]; M. abscessus Clinical Isolate #8, with 5 μg/ml ND 11992, read-out: ND-11598 MIC with 5 μg/ml ND 11992) was 5 mg/L and the MIC ([2]; M. abscessus Clinical Isolate #38, read-out: MIC ND-11598 alone) was > 10 mg/L. For the same compound, the MIC ([2]; M. abscessus Clinical Isolate #38, with 5 μg/ml ND 11992, read-out: ND-11598 MIC with 5 μg/ml ND 11992) was 5 mg/L, the MIC ([2]; M. abscessus Clinical Isolate #50, read-out: MIC ND-11598 alone) was > 10 mg/L and the MIC ([2]; M. abscessus Clinical Isolate #50, with 5 μg/ml ND 11992, read-out: ND-11598 MIC with 5 μg/ml ND 11992) was 10 mg/L. It also gave an MIC ([3]; NTM Clinical Isolate #25, read-out: MIC ND-11598 alone) of 0.25 mg/L, an MIC ([3]; NTM Clinical Isolate #25, with 0.5 μg/ml ND 11992, read-out: ND-11598 MIC with 0.5 μg/ml ND 11992) of 0.0156 mg/L and an MIC ([3]; NTM Clinical Isolate #50, read-out: MIC ND-11598 alone) of 1 mg/L. The MIC ([3]; NTM Clinical Isolate #50, with 0.5 μg/ml ND 11992, read-out: ND-11598 MIC with 0.5 μg/ml ND 11992) was 0.0156 mg/L, the MIC ([3]; NTM MAIC A5 (serotype 4), read-out: MIC ND-11598 alone) was 1 mg/L and the MIC ([3]; NTM MAIC A5 (serotype 4), with 0.5 μg/ml ND 11992, read-out: ND-11598 MIC with 0.5 μg/ml ND 11992) was 0.25 mg/L. For the same compound, the MIC ([3]; NTM MAIC Serovar #4, read-out: MIC ND-11598 alone) was > 10 mg/L, the MIC ([3]; NTM MAIC Serovar #4, with 0.5 μg/ml ND 11992, read-out: ND-11598 MIC with 0.5 μg/ml ND 11992) was 0.25 mg/L and the MIC ([3]; NTM MAIC Serovar #5, read-out: MIC ND-11598 alone) was > 10 mg/L. The MIC ([3]; NTM MAIC Serovar #5, with 0.5 μg/ml ND 11992, read-out: ND-11598 MIC with 0.5 μg/ml ND 11992) was 1 mg/L, the MIC ([3]; NTM MAIC Serovar #6, read-out: MIC ND-11598 alone) was 0.0156 mg/L and the MIC ([3]; NTM MAIC Serovar #6, with ND-11992 at 1 (column head: 0.5 μg/ml), read-out: ND-11598 MIC with ND 11992) was 0.0078 mg/L. The MIC ([3]; NTM MAIC Serovar #10, read-out: MIC ND-11598 alone) was 10 mg/L and the MIC ([3]; NTM MAIC Serovar #10, with 0.5 μg/ml ND 11992, read-out: ND-11598 MIC with 0.5 μg/ml ND 11992) was 0.25 mg/L.
With `FC(F)(F)c1ccc(Oc2ccc(Nc3ncnc4ccccc34)cc2)cc1` [ND-11992] the MIC ([2]; M. abscessus Clinical Isolate #8, with 5 μg/ml of ND-11598, read-out: ND-11992 MIC with 5 μg/ml of ND-11598) was 5 mg/L, the MIC ([2]; M. abscessus Clinical Isolate #38, with 5 μg/ml of ND-11598, read-out: ND-11992 MIC with 5 μg/ml of ND-11598) was 5 mg/L and the MIC ([2]; M. abscessus Clinical Isolate #50, with 5 μg/ml of ND-11598, read-out: ND-11992 MIC with 5 μg/ml of ND-11598) was 10 mg/L. The “Activity (effect on MICs in combination)” value ([2]; M. abscessus Clinical Isolate #8) was “Additive”, the “Activity (effect on MICs in combination)” value ([2]; M. abscessus Clinical Isolate #38) was “Additive” and the “Activity (effect on MICs in combination)” value ([2]; M. abscessus Clinical Isolate #50) was “Additive”. It also gave an MIC ([3]; NTM Clinical Isolate #25, ND-11598 was only 0.125 μg/ml (column head: 0.5 μg/ml), read-out: ND-11992 MIC with ND-11598) of 0.0625 mg/L, an MIC ([3]; NTM Clinical Isolate #50, with 0.5 μg/ml of ND-11598, read-out: ND-11992 MIC with 0.5 μg/ml of ND-11598) of 0.125 mg/L and an MIC ([3]; NTM MAIC A5 (serotype 4), with 0.5 μg/ml of ND-11598, read-out: ND-11992 MIC with 0.5 μg/ml of ND-11598) of 0.25 mg/L. The MIC ([3]; NTM MAIC Serovar #4, with 0.5 μg/ml of ND-11598, read-out: ND-11992 MIC with 0.5 μg/ml of ND-11598) was 0.5 mg/L, the MIC ([3]; NTM MAIC Serovar #5, with 0.5 μg/ml of ND-11598, read-out: ND-11992 MIC with 0.5 μg/ml of ND-11598) was 1 mg/L and the MIC ([3]; NTM MAIC Serovar #10, with 0.5 μg/ml of ND-11598, read-out: ND-11992 MIC with 0.5 μg/ml of ND-11598) was 0.5 mg/L. For the same compound, the “Activity (effect on MICs in combination)” value ([3]; ND-11992 with ND-11598, NTM MAIC Serovar #6) was “Additive”, the CFU drop ([1]; 10 mg/kg of ND-11992 alone) was “no CFU drop” and the “type of efficacy (bactericidal/bacteriostatic)” value ([1]; combination ND-11992 10 mg/kg PO + Q203 5 mg/kg PO, 5 days) was “bactericidal”. The “CFU drop in bacteria” value ([1]; combination ND-11992 10 mg/kg PO + Q203 5 mg/kg PO, dosed orally for 5 days) was 1.5 log 10 CFU and the “type of efficacy (bactericidal/bacteriostatic)” value ([1]; dosed alone as single agents) was “bacteriostatic”.
